The text below walks through data of ChEMBL document CHEMBL1201862, “PubChem BioAssay data set” (2004).

SMILES strings stand for the structures.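 Assay format: 96-well plates, 48-hour exposure. At the GI50, growth is halved.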 Activity calls are given as the source filed them. Cut-off read from the data, not from the text of the source: active = GI50 up to about 1.1 µM and inactive = higher.

Holding throughout (assay): growth of human tumour cells (NCI), 48 h
Experiment [1] deals with SF-539.
The test system of experiment [2] is RXF 393.
Experiment [3] deals with UACC-257.
The subject of experiment [4] is OVCAR-4.
The subject of experiment [5] is MOLT-4.
The test system of experiment [6] is HCC 2998.
Experiment [7] deals with UO-31.
For experiment [8], the system named is 786-0.
For experiment [9], the system named is SF-295.
For experiment [10], the system named is SK-MEL-2.
For experiment [11], the system named is EKVX.
For experiment [12], the system named is UACC-62.
For experiment [13], the system named is SNB-75.
Experiment [14] has as its system OVCAR-3.
In experiment [15] the test system is K562.
Experiment [16] has as its system HCT-116.
For experiment [17], the system named is OVCAR-5.
In experiment [18] the test system is MDA-MB-435.
The subject of experiment [19] is PC-3.

In the case of `COc1cc2c(c(OC)c1OC)-c1ccc(SC)c(=O)cc1C(CC(=O)Oc1cccc(C#N)c1)C2` (configuration not stated), the GI50 in [1] was 0.221 µM (active); in [2], 0.167 µM (active); in [3], 0.516 µM (active); in [4] it was 3.32 µM (inactive); in experiment [5], 0.536 µM (active); in [6] it was 0.254 µM (active). Moreover, the GI50 in experiment [7] is 1.67 µM (inactive); in [8], 0.475 µM (active); in [9] it was 0.266 µM (active); in [10] it was 0.348 µM (active); in [11], 0.574 µM (active); in [12], 0.202 µM (active). Also, the GI50 is 0.291 µM (active) in experiment [13], 0.232 µM (active) in [14], 0.181 µM (active) in experiment [15] and 0.387 µM (active) in experiment [16].
Regarding `CC1(C)CC(=O)C(CC2C(=O)c3ccccc3C2=O)C(=O)C1`, the GI50 in experiment [17], in experiment [1], in experiment [2], in experiment [3], in [4] and in experiment [5] was > 100 µM (inactive) throughout. Moreover, the GI50 in [6], in experiment [7], in [8], in experiment [9], in experiment [10] and in [11] was > 100 µM (inactive) throughout. Also, the GI50 in experiment [12], in [13], in experiment [14], in experiment [15] and in experiment [16] was > 100 µM (inactive) in each case.
For `CCOC(=O)CNC1C(NC(C)=O)C(OC)OC2COC(c3ccccc3)OC21` (configuration not stated), the GI50 was > 100 µM (inactive) in experiment [17]; > 100 µM (inactive) in [1]; > 100 µM (inactive) in [2]; > 100 µM (inactive) in experiment [3]; > 100 µM (inactive) in experiment [4]; > 10 µM (inactive) in experiment [5]. Moreover, the GI50 in experiment [6], in experiment [7], in experiment [8], in experiment [9], in experiment [10] and in [11] was > 100 µM (inactive) each time. In addition, the GI50 in experiment [12], in experiment [13], in experiment [14], in [15] and in experiment [16] was > 100 µM (inactive) in each case.
For `CC(=O)NC(CCCCN)C(=O)NCc1ccccc1` (configuration not stated), the GI50 in [17], in [1], in experiment [2], in experiment [3], in experiment [4] and in experiment [5] was > 100 µM (inactive) in each case. Moreover, the GI50 in experiment [6], in experiment [7], in experiment [8], in [9], in experiment [10] and in experiment [11] was > 100 µM (inactive) throughout. For the same molecule, the GI50 in [12] is > 100 µM (inactive); in experiment [13], 88.1 µM (inactive); in [14], > 100 µM (inactive); in experiment [15], > 100 µM (inactive); in experiment [16] it was > 100 µM (inactive).
Turning to `COc1cccc2c1C(=O)c1c(O)c3c(c(O)c1C2=O)C[C@@](O)(C(C)O)C[C@@H]3OC1CC(N)C(O)C(C)O1` (some centres not stated), the GI50 in experiment [17] was 3.3 µM (inactive); in experiment [1], 0.869 µM (active); in experiment [2], 1.47 µM (inactive); in experiment [3], 1.42 µM (inactive); in experiment [4], 4.99 µM (inactive); in [5], 0.105 µM (active). Besides, the GI50 in experiment [6] was 1.68 µM (inactive); in experiment [7], 38.5 µM (inactive); in experiment [8], 0.644 µM (active); in experiment [9], 1.26 µM (inactive); in experiment [10] it was 1.41 µM (inactive); in [11] it was 1.18 µM (inactive). For the same molecule, the GI50 in experiment [12] was 1.34 µM (inactive); in experiment [13], 0.00982 µM (active); in [14], 2.4 µM (inactive); in experiment [15], 1.12 µM (active); in experiment [16], 0.805 µM (active).
For the molecule `C=CCNC1=C(C(=O)OCC)C(=O)CO1`, the GI50 in experiment [17], in experiment [1], in [2], in experiment [3], in [4] and in experiment [5] was > 100 µM (inactive) each time. In addition, the GI50 in experiment [6], in experiment [7], in experiment [8], in [9], in experiment [10] and in [11] was > 100 µM (inactive) each time. Also, the GI50 in experiment [12], in experiment [13], in experiment [14], in experiment [15] and in experiment [16] was > 100 µM (inactive) in each case.
Consider `CC(C(=O)c1ccccc1)C1(O)C(=O)Nc2ccccc21` (configuration not stated), for which the GI50 in [17], in experiment [1], in experiment [2], in [3], in experiment [4] and in [5] was > 100 µM (inactive) throughout. The GI50 in experiment [6], in [7], in [8], in experiment [9], in [10] and in experiment [11] was > 100 µM (inactive) in each case. Moreover, the GI50 in experiment [12], in [13], in experiment [14], in [15] and in experiment [16] was > 100 µM (inactive) throughout.
For `CCCCCCCC/C=C\CCCCCCCC(=O)OC[C@]1(CO)CCC(=O)O1`, the GI50 in experiment [17], in experiment [2], in [3], in experiment [4], in experiment [5] and in experiment [6] was > 100 µM (inactive) throughout. For the same molecule, the GI50 in [7], in [8], in experiment [9], in experiment [10], in experiment [11] and in experiment [18] was > 100 µM (inactive) each time. In addition, the GI50 in experiment [12], in experiment [13], in experiment [14], in experiment [15], in experiment [19] and in [16] was > 100 µM (inactive) in each case.
As for `COC(=O)[C@H](CC(C)C)NC(=O)[C@H](Cc1ccccc1)N1CC2C=CC1C2` (some centres not stated), the GI50 in [17], in [1], in experiment [2], in experiment [3], in experiment [4] and in experiment [5] was > 100 µM (inactive) throughout. In addition, the GI50 in experiment [6], in experiment [7], in [8], in [9], in [10] and in [11] was > 100 µM (inactive) throughout. The GI50 in experiment [12], in [13], in [14] and in experiment [15] was > 100 µM (inactive) each time.
As for `CCCCCCc1cc2cc(-c3cn4ccsc4n3)c(=O)oc2cc1O`, the GI50 in [17] was > 100 µM (inactive); in [1], 64.3 µM (inactive); in experiment [2] it was 29.3 µM (inactive); in [3], > 24.5 µM (inactive); in [4] it was > 79.6 µM (inactive); in experiment [5], > 100 µM (inactive). Also, the GI50 in experiment [6] is > 100 µM (inactive); in [7], > 100 µM (inactive); in experiment [8], > 56.9 µM (inactive); in experiment [9], > 100 µM (inactive); in experiment [10] it was > 100 µM (inactive); in experiment [11], > 77.6 µM (inactive). Further, the GI50 was 19.1 µM (inactive) in [12]; 8.15 µM (inactive) in experiment [13]; > 77.1 µM (inactive) in experiment [14]; > 75.2 µM (inactive) in experiment [15]; > 100 µM (inactive) in experiment [19]; > 67.6 µM (inactive) in experiment [16].
With `Cc1c(/C=N/NC(=O)c2ccccc2)c(=O)n(-c2ccccc2)n1C`, the GI50 in [1], in experiment [2], in experiment [3], in experiment [4], in experiment [5] and in [6] was > 100 µM (inactive) in each case. Also, the GI50 in [7], in [8], in experiment [9], in experiment [10], in [11] and in [12] was > 100 µM (inactive) in each case. For the same molecule, the GI50 in experiment [13], in experiment [14], in experiment [15] and in [16] was > 100 µM (inactive) each time.
As for `CCOC(=O)/C(C#N)=C/c1[nH]c(C(=O)OCc2ccccc2)c(C)c1C`, the GI50 in experiment [17], in [1], in experiment [2], in [3], in experiment [4] and in [5] was > 100 µM (inactive) in each case. Besides, the GI50 in experiment [6], in experiment [7], in [8], in [9], in experiment [10] and in [11] was > 100 µM (inactive) throughout. Further, the GI50 in experiment [12], in experiment [13], in experiment [14] and in [15] was > 100 µM (inactive) throughout.
